Data as given in patent US8257755B2, “Metabolic syndrome-improving agent and medicine, supplement, functional food and food additive containing the same” (ARKRAY, Inc., priority 2005, dated 2012).

Assays:
Format in all cases: cell-based
[1] = biological target: T1, PPARα (Homo sapiens, UniProt Q07869); experiment: PPARα ligand activity, GAL4-hPPARα luciferase reporter assay in CV-1 cells; conditions: relative to non-treatment control (DMSO) = 100, average ± standard error
T1 construct: expressed in transfected cells; host or cells: CV-1 cells (African green monkey kidney)
T1 sequence (Q07869 1-468): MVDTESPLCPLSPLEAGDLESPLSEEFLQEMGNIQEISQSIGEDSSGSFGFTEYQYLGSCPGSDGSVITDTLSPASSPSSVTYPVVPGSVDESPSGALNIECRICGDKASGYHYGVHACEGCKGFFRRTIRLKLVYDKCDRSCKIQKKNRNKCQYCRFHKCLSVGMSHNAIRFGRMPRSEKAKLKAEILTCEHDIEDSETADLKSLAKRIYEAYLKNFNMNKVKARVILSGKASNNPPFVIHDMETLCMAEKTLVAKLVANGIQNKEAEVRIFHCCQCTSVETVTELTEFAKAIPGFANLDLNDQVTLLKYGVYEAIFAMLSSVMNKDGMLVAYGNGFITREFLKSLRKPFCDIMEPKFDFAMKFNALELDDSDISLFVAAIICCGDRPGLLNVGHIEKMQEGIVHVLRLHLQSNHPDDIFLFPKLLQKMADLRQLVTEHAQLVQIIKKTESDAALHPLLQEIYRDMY
Description: (§1) CV-1 cells (cultured cells derived from kidneys of male African green monkeys) were implanted on 24-well culture plates so as to be […]/well and cultured at 37° C. in 5% CO2 for 24 hours. As a medium, DMEM (Dulbecco's Modified Eagle Medium; manufactured by GIBCO) containing 10% FBS (fetal bovine serum) and a 10 mg/mL penicillin streptomycin solution was used. Using the Lipofectamine system (trade name; manufactured by Invitrogen Corporation), pM-hPPARγ and p4×UASg-tk-luc were transfected. The above-noted pM-hPPARγ was a chimeric protein-expression plasmid binding GAL4 gene (amino acid sequence 1-147) and human PPARγ ligand-binding site gene (amino acid sequence 204-505), whereas the above-noted p4×UASg-tk-luc was a reporter plasmid containing four copies of a responsive element (UAS) of GAL 4 upstream of a luciferase gene. About 24 hours after the transfection, samples of bergamottin at respective concentrations (0.1, 1.0, 10, 50 and 100 μM) were added to the above-described media, followed by 24 hour incubation. The above-noted samples were prepared by dissolving bergamottin in dimethyl sulfoxide (DMSO). Instead of the above-noted sample, DMSO was used for non-treated control media. After the incubation, measurement was made using a Dual-Luciferase Reporter Gene Assay system (trade name; manufactured by Promega Corporation).
(§2) Similarly to the measurement group, as a control group, pM (a plasmid from which PPARγ ligand-binding site gene was removed) was used for measurement instead of pM-hPPARγ. For each sample, the ratio between average luminescence intensities of the measurement group and the control group (n=4) (measurement group/control group) was calculated, and an activity relative to the non-treatment control was determined as the PPARγ ligand activity of the sample.
The PPARα ligand activity of bergamottin was measured similarly to Example 1 except that pM-hPPARα was used instead of pM-hPPARγ and the bergamottin concentrations were set to 0.1, 1.0, 5.0, 10, 20, 50 and 80 μM.

[2] = tested on: HepG2 cells (human hepatic cells); experiment: Counting of the number of living cells (CellTiter 96 Aqueous One) in HepG2; conditions: 30 hours, measurement group/control group, DMSO control = 100
Description: HepG2 was cultured to 80% to 90% confluence in a 100 mm/Collagen-Coated Dish (trade name, manufactured by Iwaki Glass Works, Co.). The medium was removed from the above-noted dish with a pipette and then HepG2 was washed with 2 mL of 1×PBS. Then, 2 mL of trypsin-EDTA was added, the above-noted dish was rotated slowly so that the trypsin-EDTA spread over the entire cells, this trypsin-EDTA was removed with a pipette, and the dish was allowed to stand still for 15 minutes in a CO2 incubator (37° C., 5%). To this dish, 12 mL of a growth medium was added, followed by mixing by pipetting, and 1 mL of this mixture solution was dispensed in each well of Collagen-Coated Microplates 12Well/Flat Bottom (trade name, manufactured by Iwaki Glass Works, Co.). After the cells were checked using a microscope, the wells were cultured in a CO2 incubator (37° C., 5%) for one to two days. After checking that 80% to 90% confluence was achieved using the microscope, a medium replacement was carried out by removing the medium and adding 800 μL of a medium containing bergamottin. […] Using this collected medium, the number of living cells were counted, and the Western blotting and the ELISA measurement were carried out similarly to the above. From the result of the ELISA, the ratio of the VLDL secretion amount between the measurement group and the non-treated control group (measurement group/control group) was calculated for each sample.
The measurement was made using CellTiter 96 Aqueous One Solution Cell Proliferation Assay (trade name, manufactured by Promega Corporation). […] 100 μL of this mixture solution was dispensed to each of three wells of ELISA PLATE 96well (trade name, manufactured by Iwaki Glass Works, Co.), and the absorbance at 490 nm was measured. The measurement was made using wallac ARVOsx (trade name, PerkinElmer Life Sciences, PerkinElmer, Inc.), and the mode of measurement was Absorbance (490 nm, 1.0 S). The ratio of the number of living cells between the measurement group and the non-treated control group (measurement group/control group) was calculated for each sample.

[3] = biological target: T2, human PPARγ ligand-binding site (Homo sapiens, UniProt P37231); experiment: PPARγ ligand activity, GAL4-hPPARγ luciferase reporter assay in CV-1 cells; conditions: for PPARγ ligand activity: relative to non-treatment control (DMSO) = 100, average ± standard error, n=4
T2 construct: expressed in transfected cells; host or cells: CV-1 cells (African green monkey kidney)
T2 sequence (P37231 204-505): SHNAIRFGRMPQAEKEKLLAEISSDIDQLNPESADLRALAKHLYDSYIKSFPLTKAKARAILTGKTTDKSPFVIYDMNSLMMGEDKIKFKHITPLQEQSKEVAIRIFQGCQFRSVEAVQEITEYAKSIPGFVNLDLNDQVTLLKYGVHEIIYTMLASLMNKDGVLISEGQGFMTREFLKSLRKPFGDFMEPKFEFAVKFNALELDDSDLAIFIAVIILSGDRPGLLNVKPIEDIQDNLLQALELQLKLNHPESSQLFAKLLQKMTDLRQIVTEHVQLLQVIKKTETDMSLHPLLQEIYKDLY
Description: as §1, §2

PPARα ligand activity ([1]; 0.1 μM): 95 ± 12.9 | PPARα ligand activity ([1]; 1.0 μM): 92 ± 8.0 | PPARα ligand activity ([1]; 5.0 μM): 118 ± 6.1 | PPARα ligand activity ([1]; 10 μM): 194 ± 15.0 | PPARα ligand activity ([1]; 20 μM): 350 ± 25.5 | PPARα ligand activity ([1]; 50 μM): 622 ± 79.6 | PPARα ligand activity ([1]; 80 μM): 558 ± 39.4 | Number of living cells (%) ([2]; 10 μM): 99.6% | Number of living cells (%) ([2]; 20 μM): 97.2% | Number of living cells (%) ([2]; 50 μM): 99.8% | PPARγ ligand activity ([3]; 0.1 μM): 90 ± 5.7 | PPARγ ligand activity ([3]; 1.0 μM): 132 ± 12.0 | PPARγ ligand activity ([3]; 10 μM): 388 ± 41.4 | PPARγ ligand activity ([3]; 50 μM): 961 ± 72.1 | PPARγ ligand activity ([3]; 100 μM): 1032 ± 248.3 | PPARγ activity level compared with catechin ([3]; no catechin data shown): higher than that of catechin
Structure (SMILES): CC(C)=CCC/C(C)=C/COc1c2ccoc2cc2oc(=O)ccc12 [Bergamottin, bergamottin]
